US10765114B2, “4-amino-6-(pyridyl and 2-substitutedphenyl)-picolinates and 6-amino-2-(pyridyl and 2-substitutedphenyl)-pyrimidine-4-carboxylates and their use as herbicides” (Dow AgroSciences LLC, priority 2013, dated 2020)
Read-outs that look alike come from different tables or passages of the source.

How the values were obtained:
[1] = tested on: Key Broadleaf Weed and Crop Species; test: Post-Emergent Test II (Table 5); type: in vivo; settings: post-emergence, 336 h; for pest or weed control at 70 g/ha: application rate 70 (kg ai/ha; footnote: g ai/ha); for pest or weed control at 140 g/ha: application rate 140 (kg ai/ha; footnote: g ai/ha)
Method in brief: (§1)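 Visual injury ratings (0 = no injury, 100 = complete kill) were taken 14 days after treatment relative to untreated plants. Seedlings at the first or second true leaf stage received an overhead spray at 187 L/ha, and solvent-blank sprayed plants served as controls.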

[2] = tested on: Key Grass and Sedge Weeds as well as Grass Crops; test: Post-Emergent Test II (Table 6); type: in vivo; settings: post-emergence, 336 h, 14 days after application; for pest or weed control at 70 g/ha: 70 g ai/ha; for pest or weed control at 140 g/ha: 140 g ai/ha
Method in brief: as §1

[3] = Abutilon theophrasti, ABUTH: velvetleaf (Abutilon theophrasti), read-out: Visual Growth Reduction (%) 14 Days After Application ABUTH
[4] = Amaranthus retroflexus, AMARE: redroot pigweed (Amaranthus retroflexus), read-out: Visual Growth Reduction (%) 14 Days After Application AMARE
[5] = Brassica napus, BRSSS: oilseed rape, canola (Brassica napus), read-out: Visual Growth Reduction (%) 14 Days After Application BRSSS
[6] = Chenopodium album, CHEAL: lambsquarters (Chenopodium album), read-out: Visual Growth Reduction (%) 14 Days After Application CHEAL
[7] = Euphorbia heterophylla, EPHHL: wild poinsettia (Euphorbia heterophylla), read-out: Visual Growth Reduction (%) 14 Days After Application EPHHL
[8] = Helianthus annuus, HELAN: sunflower (Helianthus annuus), read-out: Visual Growth Reduction (%) 14 Days After Application HELAN
[9] = Viola tricolor, VIOTR: wild pansy (Viola tricolor), read-out: Visual Growth Reduction (%) 14 Days After Application VIOTR
[10] = CYPSS, read-out: Visual Growth Reduction (%) 14 Days After Application CYPSS
[11] = DIGSA: crabgrass (Digitaria sanguinalis), read-out: Visual Growth Reduction (%) 14 Days After Application DIGSA
[12] = ORYSS (crop), read-out: Visual Growth Reduction (%) 14 Days After Application ORYSS
[13] = SORVU: grain sorghum (Sorghum vulgare), read-out: Visual Growth Reduction (%) 14 Days After Application SORVU
[14] = TRZSS (crop), read-out: Visual Growth Reduction (%) 14 Days After Application TRZSS
[15] = ZEAMX: maize, corn (Zea mays), read-out: Visual Growth Reduction (%) 14 Days After Application ZEAMX
[16] = ECHSS, read-out: Visual Growth Reduction (%) 14 Days After Application ECHSS
[17] = SETFA: giant foxtail (Setaria faberi), read-out: Visual Growth Reduction (%) 14 Days After Application SETFA

Cc1c(-c2ccc(C(F)(F)F)nc2)nc(C(=O)O)c(Cl)c1N [Compound 51, 4-amino-5-chloro-3-methyl-6′-(trifluoromethyl)-[2,3′-bipyridine]-6-carboxylic acid]
melting point: 140 to 160 °C
pest or weed control at 70 g/ha [1, 3]: 0 to 29%
pest or weed control at 140 g/ha [1, 3]: 0 to 29%
pest or weed control at 70 g/ha [1, 4]: 0 to 29%
pest or weed control at 140 g/ha [1, 4]: 0 to 29%
pest or weed control at 70 g/ha [1, 5]: 60 to 74%
pest or weed control at 140 g/ha [1, 5]: 85 to 94%
pest or weed control at 70 g/ha [1, 6]: 0 to 29%
pest or weed control at 140 g/ha [1, 6]: 85 to 94%
pest or weed control at 70 g/ha [1, 7]: 0 to 29%
pest or weed control at 140 g/ha [1, 7]: 0 to 29%
pest or weed control at 70 g/ha [1, 8]: 85 to 94%
pest or weed control at 140 g/ha [1, 8]: 85 to 94%
pest or weed control at 70 g/ha [1, 9]: 0 to 29%
pest or weed control at 140 g/ha [1, 9]: 0 to 29%
pest or weed control at 70 g/ha [2, 10]: 95 to 100%
pest or weed control at 140 g/ha [2, 10]: 95 to 100%
pest or weed control at 70 g/ha [2, 11]: 60 to 74%
pest or weed control at 140 g/ha [2, 11]: 60 to 74%
pest or weed control at 70 g/ha [2, 12]: 0 to 29%
pest or weed control at 140 g/ha [2, 12]: 0 to 29%
pest or weed control at 70 g/ha [2, 13]: 75 to 84%
pest or weed control at 140 g/ha [2, 13]: 75 to 84%
pest or weed control at 70 g/ha [2, 14]: 30 to 44%
pest or weed control at 140 g/ha [2, 14]: 45 to 59%
pest or weed control at 70 g/ha [2, 15]: 60 to 74%
pest or weed control at 140 g/ha [2, 15]: 60 to 74%

COC(=O)c1nc(-c2ccc(C)nc2)c(F)c(N)c1Cl [Compound 90]
melting point: 191 °C
pest or weed control at 70 g/ha [1, 3]: 85 to 94%
pest or weed control at 140 g/ha [1, 3]: 95 to 100%
pest or weed control at 70 g/ha [1, 4]: 95 to 100%
pest or weed control at 140 g/ha [1, 4]: 95 to 100%
pest or weed control at 70 g/ha [1, 5]: 60 to 74%
pest or weed control at 140 g/ha [1, 5]: 75 to 84%
pest or weed control at 70 g/ha [1, 6]: 95 to 100%
pest or weed control at 140 g/ha [1, 6]: 95 to 100%
pest or weed control at 70 g/ha [1, 7]: 85 to 94%
pest or weed control at 140 g/ha [1, 7]: 95 to 100%
pest or weed control at 70 g/ha [1, 8]: 95 to 100%
pest or weed control at 140 g/ha [1, 8]: 95 to 100%
pest or weed control at 70 g/ha [1, 9]: 0 to 29%
pest or weed control at 140 g/ha [1, 9]: 45 to 59%
pest or weed control at 70 g/ha [2, 10]: 0 to 29%
pest or weed control at 140 g/ha [2, 10]: 0 to 29%
pest or weed control at 70 g/ha [2, 11]: 0 to 29%
pest or weed control at 140 g/ha [2, 11]: 45 to 59%
pest or weed control at 70 g/ha [2, 16]: 75 to 84%
pest or weed control at 140 g/ha [2, 16]: 75 to 84%
pest or weed control at 70 g/ha [2, 12]: 0 to 29%
pest or weed control at 140 g/ha [2, 12]: 0 to 29%
pest or weed control at 70 g/ha [2, 17]: 45 to 59%
pest or weed control at 140 g/ha [2, 17]: 60 to 74%
pest or weed control at 70 g/ha [2, 13]: 45 to 59%
pest or weed control at 140 g/ha [2, 13]: 45 to 59%
pest or weed control at 70 g/ha [2, 14]: 30 to 44%
pest or weed control at 140 g/ha [2, 14]: 30 to 44%
pest or weed control at 70 g/ha [2, 15]: 95 to 100%
pest or weed control at 140 g/ha [2, 15]: 95 to 100%

COc1nc(C(F)(F)F)ccc1-c1cc(N)c(Cl)c(C(=O)O)n1 [Compound 65]
melting point: 169 to 171 °C
pest or weed control at 70 g/ha [1, 3]: 0 to 29%
pest or weed control at 140 g/ha [1, 3]: 0 to 29%
pest or weed control at 70 g/ha [1, 4]: 85 to 94%
pest or weed control at 140 g/ha [1, 4]: 85 to 94%
pest or weed control at 70 g/ha [1, 5]: 0 to 29%
pest or weed control at 140 g/ha [1, 5]: 0 to 29%
pest or weed control at 70 g/ha [1, 6]: 0 to 29%
pest or weed control at 140 g/ha [1, 6]: 0 to 29%
pest or weed control at 70 g/ha [1, 7]: 0 to 29%
pest or weed control at 140 g/ha [1, 7]: 0 to 29%
pest or weed control at 70 g/ha [1, 8]: 45 to 59%
pest or weed control at 140 g/ha [1, 8]: 45 to 59%
pest or weed control at 70 g/ha [1, 9]: 0 to 29%
pest or weed control at 140 g/ha [1, 9]: 0 to 29%
pest or weed control at 70 g/ha [2, 10]: 0 to 29%
pest or weed control at 140 g/ha [2, 10]: 0 to 29%
pest or weed control at 70 g/ha [2, 11]: 0 to 29%
pest or weed control at 140 g/ha [2, 11]: 0 to 29%
pest or weed control at 70 g/ha [2, 16]: 0 to 29%
pest or weed control at 140 g/ha [2, 16]: 0 to 29%
pest or weed control at 70 g/ha [2, 12]: 0 to 29%
pest or weed control at 140 g/ha [2, 12]: 0 to 29%
pest or weed control at 70 g/ha [2, 17]: 0 to 29%
pest or weed control at 140 g/ha [2, 17]: 0 to 29%
pest or weed control at 70 g/ha [2, 13]: 0 to 29%
pest or weed control at 140 g/ha [2, 13]: 0 to 29%
pest or weed control at 70 g/ha [2, 14]: 0 to 29%
pest or weed control at 140 g/ha [2, 14]: 0 to 29%
pest or weed control at 70 g/ha [2, 15]: 0 to 29%
pest or weed control at 140 g/ha [2, 15]: 0 to 29%

COC(=O)c1nc(-c2ccc(C(F)(F)F)nc2)c(F)c(N)c1Cl [Compound 59, methyl 4-amino-5-chloro-3-fluoro-6′-(trifluoromethyl)-[2,3′-bipyridine]-6-carboxylate]
melting point: 137 °C
pest or weed control at 70 g/ha [1, 3]: 85 to 94%
pest or weed control at 140 g/ha [1, 3]: 95 to 100%
pest or weed control at 70 g/ha [1, 4]: 85 to 94%
pest or weed control at 140 g/ha [1, 4]: 95 to 100%
pest or weed control at 70 g/ha [1, 5]: 60 to 74%
pest or weed control at 140 g/ha [1, 5]: 60 to 74%
pest or weed control at 70 g/ha [1, 6]: 95 to 100%
pest or weed control at 140 g/ha [1, 6]: 95 to 100%
pest or weed control at 70 g/ha [1, 7]: 95 to 100%
pest or weed control at 140 g/ha [1, 7]: 95 to 100%
pest or weed control at 70 g/ha [1, 8]: 95 to 100%
pest or weed control at 140 g/ha [1, 8]: 95 to 100%
pest or weed control at 70 g/ha [1, 9]: 60 to 74%
pest or weed control at 140 g/ha [1, 9]: 75 to 84%
pest or weed control at 70 g/ha [2, 10]: 95 to 100%
pest or weed control at 140 g/ha [2, 10]: 95 to 100%
pest or weed control at 70 g/ha [2, 11]: 75 to 84%
pest or weed control at 140 g/ha [2, 11]: 85 to 94%
pest or weed control at 70 g/ha [2, 16]: 85 to 94%
pest or weed control at 140 g/ha [2, 16]: 85 to 94%
pest or weed control at 70 g/ha [2, 12]: 0 to 29%
pest or weed control at 140 g/ha [2, 12]: 0 to 29%
pest or weed control at 70 g/ha [2, 17]: 60 to 74%
pest or weed control at 140 g/ha [2, 17]: 75 to 84%
pest or weed control at 70 g/ha [2, 13]: 75 to 84%
pest or weed control at 140 g/ha [2, 13]: 85 to 94%
pest or weed control at 70 g/ha [2, 14]: 45 to 59%
pest or weed control at 140 g/ha [2, 14]: 45 to 59%
pest or weed control at 70 g/ha [2, 15]: 75 to 84%
pest or weed control at 140 g/ha [2, 15]: 75 to 84%
